The text below walks through data of ChEMBL document CHEMBL4311976, “Design, synthesis and biological evaluation of novel 7H-pyrrolo[2,3-d]pyrimidine derivatives as potential FAK inhibitors and anticancer agents” (Eur J Med Chem, 2019).

Some results are limits rather than exact numbers.

Test in all cases: cells
One assay relates to MDA-MB-231. As to conditions: Homo sapiens, MDA-MB-231, 72 h.
In a further assay the test system is A549. As to conditions: Homo sapiens, A549, 72 h.
For another assay, the system named is HK-2. The settings on record: Homo sapiens, HK-2, 72 h.

Description for A549: Antiproliferative activity against human A549 cells assessed as reduction in cell viability after 72 hrs by MTT assay
Description for HK-2: Cytotoxicity against human HK2 cells assessed as reduction in cell viability after 72 hrs by MTT assay
Description for MDA-MB-231: Antiproliferative activity against human MDA-MB-231 cells assessed as reduction in cell viability after 72 hrs by MTT assay

Take `COCCn1cc(Nc2nc(Nc3ccccc3P(C)(C)=O)c3cc[nH]c3n2)cn1`: the half-maximal inhibitory concentration (IC50) in the assay with MDA-MB-231 is 8.18 µM; with A549, 17.4 µM; with HK-2, > 25 µM.

In the case of `CP(C)(=O)c1ccccc1Nc1nc(Nc2ccc(C(=O)NC3CCNCC3)cc2)nc2[nH]ccc12`, the IC50 was 17.8 µM in the assay on MDA-MB-231, 2.93 µM with A549 and > 25 µM in the assay on HK-2.

In the case of `CP(C)(=O)c1ccccc1Nc1nc(Nc2cnn(CC(F)F)c2)nc2[nH]ccc12`, the values for the IC50 in the assay on MDA-MB-231, in the assay with A549 and with HK-2 were 3.43 µM, 7.53 µM and 4.4 µM, respectively.

As to `CNC(=O)c1ccc(Nc2nc(Nc3ccccc3P(C)(C)=O)c3cc[nH]c3n2)cc1`, the IC50 in the assay with MDA-MB-231 amounted to 4.17 µM; in the assay on A549, 3.45 µM; in the assay on HK-2 it was 9.16 µM.

For `CCNS(=O)(=O)c1ccc(Nc2nc(Nc3ccccc3P(C)(C)=O)c3cc[nH]c3n2)cc1`, the half-inhibitory concentration (IC50) came to 1.31 µM in the assay with MDA-MB-231, 1.02 µM in the assay on A549 and 4.77 µM in the assay with HK-2.

As to `CP(C)(=O)c1ccccc1Nc1nc(Nc2ccc(C(=O)N3CCOCC3)cc2)nc2[nH]ccc12`, the 50% inhibitory concentration (IC50) was determined as 14.3 µM in the assay on MDA-MB-231, 9.8 µM with A549 and 8.89 µM in the assay on HK-2.

Consider `CP(C)(=O)c1ccccc1Nc1nc(Nc2ccc(C(=O)N[C@H]3CCCNC3)cc2)nc2[nH]ccc12`, for which the IC50 in the assay on MDA-MB-231 was 12.4 µM; with A549, 2.48 µM; with HK-2, > 25 µM.

As for `CNC(=O)c1ccccc1Nc1nc(Nc2ccc(N3CCOCC3)cc2OC)ncc1Cl`, the IC50 came to 4.24 µM with MDA-MB-231, 1.02 µM with A549 and 8.2 µM with HK-2.

In the case of `CP(C)(=O)c1ccccc1Nc1nc(Nc2cnn(C3CCOCC3)c2)nc2[nH]ccc12`, the IC50 in the assay with MDA-MB-231 came to 5.53 µM; with A549, 7.01 µM; in the assay with HK-2 it was 14.4 µM.

For `CP(C)(=O)c1ccccc1Nc1nc(Nc2cnn(C3CCNCC3)c2)nc2[nH]ccc12`, the half-maximal inhibitory concentration (IC50) is 14.1 µM with MDA-MB-231, 14.5 µM in the assay with A549 and > 25 µM with HK-2.

Regarding `COc1cc(C(=O)NC2CCNCC2)c(F)cc1Nc1nc(Nc2ccccc2P(C)(C)=O)c2cc[nH]c2n1`, the concentration for half-maximal inhibition (IC50) was 11.3 µM with MDA-MB-231, 2.24 µM in the assay with A549 and > 25 µM in the assay with HK-2.

On to `CP(C)(=O)c1ccccc1Nc1nc(Nc2ccc(C(=O)N3CCNCC3)cc2)nc2[nH]ccc12`, for which the IC50 in the assay with MDA-MB-231 is 8.8 µM; with A549, 9.88 µM; with HK-2, > 25 µM.

Consider `CP(C)(=O)c1ccccc1Nc1nc(Nc2ccc(N3CCNCC3)cc2)nc2[nH]ccc12`, for which the results for the half-inhibitory concentration (IC50) in the assay on MDA-MB-231, with A549 and in the assay on HK-2 were 4.35 µM, 0.53 µM and 8.33 µM, respectively.

`CP(C)(=O)c1ccccc1Nc1nc(Nc2ccc(C(=O)NC3CCNCC3)c(F)c2)nc2[nH]ccc12`: the values for the IC50 in the assay with MDA-MB-231, in the assay with A549 and with HK-2 were 4.17 µM, 1.61 µM and 21.9 µM, respectively.

In the case of `CP(C)(=O)c1ccccc1Nc1nc(Nc2ccc(C(=O)NC3CCOCC3)cc2)nc2[nH]ccc12`, the IC50 was found to be 6.53 µM in the assay on MDA-MB-231, 3.72 µM in the assay with A549 and 9.75 µM in the assay on HK-2.
